Results: ChEMBL document CHEMBL1201862, “PubChem BioAssay data set” (2004)
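96-well plates; 48 h exposure; 5 concentrations. Endpoints by linear interpolation between flanking doses. Not reached: highest tested concentration assigned. GI50: concentration for 50% inhibition of growth.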 Activity calls are given as the source filed them. No stated cut-off is given here; in the data, active = GI50 up to about 1.1 µM and inactive = higher.

Assays:
Experiment in all cases: growth of human tumour cells (NCI), 48 h
MDA-N = tested on: MDA-N
U-251 = tested on: U-251
NCI-H226 = tested on: NCI-H226
HOP-62 = tested on: HOP-62
786-0 = tested on: 786-0
PC-3 = tested on: PC-3
OVCAR-3 = tested on: OVCAR-3
HT-29 = tested on: HT-29
SF-539 = tested on: SF-539
MOLT-4 = tested on: MOLT-4
OVCAR-5 = tested on: OVCAR-5
SK-MEL-5 = tested on: SK-MEL-5
MDA-MB-231 = tested on: MDA-MB-231
CCRF-CEM = tested on: CCRF-CEM
LXFL 529 = tested on: LXFL 529
Malme-3M = tested on: Malme-3M
UACC-62 = tested on: UACC-62
DU-145 = tested on: DU-145
SK-MEL-28 = tested on: SK-MEL-28
A498 = tested on: A498

Measured: GI50

CCN(CC)c1ccc(/C=C2/C[N+](C)(C)C/C(=C/c3ccc(N(CC)CC)cc3)C2=O)cc1
active: CCRF-CEM 1.03 µM | LXFL 529 1.1 µM
inactive: MDA-N 1.66 µM | U-251 2.37 µM | NCI-H226 6.21 µM | HOP-62 5.55 µM | 786-0 3.12 µM | PC-3 3.05 µM | OVCAR-3 2.12 µM | HT-29 1.58 µM | SF-539 2.32 µM | MOLT-4 1.51 µM | OVCAR-5 9.73 µM | SK-MEL-5 1.67 µM | MDA-MB-231 2.58 µM | Malme-3M 1.95 µM | UACC-62 2.01 µM | DU-145 6.05 µM | SK-MEL-28 1.82 µM | A498 12.4 µM

O=S1(=O)CS(=O)(=O)OCCO1
inactive: MDA-N 33.8 µM | U-251 21.3 µM | NCI-H226 41.4 µM | HOP-62 12.4 µM | 786-0 10.9 µM | PC-3 82 µM | OVCAR-3 40.3 µM | HT-29 63.1 µM | SF-539 11.3 µM | MOLT-4 10.4 µM | OVCAR-5 85.5 µM | SK-MEL-5 40.1 µM | MDA-MB-231 128 µM | CCRF-CEM 18.5 µM | LXFL 529 > 100 µM | Malme-3M 55.1 µM | UACC-62 6.43 µM | DU-145 51.1 µM | SK-MEL-28 69 µM | A498 52.5 µM

CN(C)CCNc1ccc2nnn3c4ccccc4c(=O)c1c23
inactive: MDA-N 2.81 µM | U-251 1.95 µM | NCI-H226 1.74 µM | HOP-62 3.72 µM | 786-0 3.27 µM | PC-3 2.41 µM | OVCAR-3 3.36 µM | HT-29 2.01 µM | SF-539 4.75 µM | MOLT-4 1.27 µM | OVCAR-5 3.72 µM | SK-MEL-5 2.15 µM | MDA-MB-231 3.69 µM | CCRF-CEM 2.27 µM | LXFL 529 3.6 µM | Malme-3M 3.01 µM | UACC-62 3.39 µM | DU-145 3.91 µM | SK-MEL-28 4.99 µM | A498 2.59 µM
